Measured values published in ChEMBL document CHEMBL1159185, “Metabolism and structure activity data based drug design: discovery of () SCH 53079 an analog of the potent cholesterol absorption inhibitor () SCH 48461” (1996).

Columns and labels:
Cricetinae gen. sp. [1] = test: Compound was evaluated for the reduction of liver cholesterol ester levels in the cholesterol-fed Hamster model at 50 mg/kg; assay type: functional
Rattus norvegicus [2] = species on record: Rattus norvegicus; test: Compound was evaluated for the plasma concentration in female rats at 8 hr after post dose; assay type: functional, organism-based
Rattus norvegicus [3] = species on record: Rattus norvegicus; test: Compound was evaluated for the plasma concentration in female rats at 4 hr after post dose; assay type: functional, organism-based
Rattus norvegicus [4] = species on record: Rattus norvegicus; test: Compound was evaluated for the plasma concentration in female rats at 1 hr after post dose; assay type: functional, organism-based
Rattus norvegicus [5] = species on record: Rattus norvegicus; test: Compound was evaluated for the plasma concentration in female rats at 24 hr after post dose; assay type: functional, organism-based
Rattus norvegicus [6] = species on record: Rattus norvegicus; test: Compound was evaluated for the plasma concentration in female rats at 2 hr after post dose; assay type: functional, organism-based
Monkey = test: Compound was evaluated for the reduction of liver cholesterol ester levels in the cholesterol-fed rhesus monkey model.; assay type: functional, Cercopithecidae
Cricetinae gen. sp. [7] = test: Compound was evaluated for the reduction of liver cholesterol ester levels in the cholesterol-fed Hamster model.; assay type: functional
Cricetinae gen. sp. [8] = test: Compound was evaluated for the reduction of liver cholesterol ester levels in the cholesterol-fed Hamster model at 50 mpk; assay type: functional

COc1ccc([C@@H]2[C@@H](CCOc3ccc(F)cc3)C(=O)N2c2ccc(OC)cc2)cc1 (racemic)
Reduction (Cricetinae gen. sp. [1]): -93%

COc1ccc([C@@H]2[C@@H](CCOc3ccc([N+](=O)[O-])cc3)C(=O)N2c2ccccc2)cc1
Reduction (Cricetinae gen. sp. [1]): -31%

COc1ccc([C@@H]2[C@@H](CCOc3ccc(F)cc3)C(=O)N2c2ccccc2)cc1 (stereo in doubt; (-)4) [listing 1 of 2 here]
Plasma level (Rattus norvegicus [2]): 239 ng/mL
Plasma level (Rattus norvegicus [3]): < 30 ng/mL
Plasma level (Rattus norvegicus [4]): > 30 ng/mL
Plasma level (Rattus norvegicus [5]): < 30 ng/mL
Plasma level (Rattus norvegicus [6]): 41.1 ng/mL

COc1ccc([C@@H]2[C@@H](CCCc3ccccc3)C(=O)N2c2ccc(OC)cc2)cc1 [SCH-48461]
ED100 (Monkey): 1 MPK

COc1ccc([C@@H]2[C@@H](CCOc3ccc(F)cc3)C(=O)N2c2ccccc2)cc1 (stereo in doubt; (-)4) [listing 2 of 2 here]
ED100 (Monkey): 0.3 MPK
ED50 (Cricetinae gen. sp. [7]): 2.2 mg/kg
Reduction (Cricetinae gen. sp. [1]; 50 mg/kg): -93%

COc1ccc([C@@H]2[C@@H](CCCc3ccccc3)C(=O)N2c2ccc(OC)cc2)cc1 (racemic) [SCH-48461]
Reduction (Cricetinae gen. sp. [8]): -78%

COc1ccc([C@@H]2[C@@H](CCOc3ccc(F)cc3)C(=O)N2c2ccccc2)cc1 (stereo in doubt; (+/-)4)
Reduction (Cricetinae gen. sp. [1]; 50 mg/kg): -95%

COc1ccc([C@@H]2[C@@H](CCOc3ccc(F)cc3F)C(=O)N2c2ccccc2)cc1
Reduction (Cricetinae gen. sp. [1]): -88%

COc1ccc([C@@H]2[C@@H](CCOc3ccc4c(c3)CCC4)C(=O)N2c2ccccc2)cc1 (racemic)
Reduction (Cricetinae gen. sp. [1]): -46%

COc1ccc(OCC[C@H]2C(=O)N(c3ccccc3)[C@@H]2c2ccc(OC)cc2)cc1
Reduction (Cricetinae gen. sp. [1]): -82%

COc1ccc([C@@H]2[C@@H](CCOc3ccccc3)C(=O)N2c2ccc(OC)cc2)cc1
Reduction (Cricetinae gen. sp. [1]): -39%

COc1ccc([C@@H]2[C@@H](CCOc3ccc(F)cc3)C(=O)N2c2ccccc2)cc1 (stereo in doubt; (+)4)
Reduction (Cricetinae gen. sp. [1]; 50 mg/kg): -28%

COc1ccc([C@@H]2[C@@H](CCOc3ccc(I)cc3)C(=O)N2c2ccccc2)cc1 (racemic)
Reduction (Cricetinae gen. sp. [1]): -47%
